The values below are quoted from earlier work in patent US20130225598A1, “Stabilized Amorphous Forms of Imatinib Mesylate” (Novartis AG, priority 2007, published 2013).

The conditions of this series: at temperatures below 140 ° C.

Take `CS(=O)(=O)O.Cc1ccc(NC(=O)c2ccc(CN3CCN(C)CC3)cc2)cc1Nc1nccc(-c2cccnc2)n1` [4-(4-methylpiperazin-1-ylmethyl)-N-[4-methyl-3-(4-(pyridin-3-yl)-pyrimidin-2-ylamino-)phenyl]-benzamide mesylate]: the “thermodynamic stability relative to alpha crystal form” value was “thermodynamically more stable than the alpha form”.
